The source of these data is patent US12616704B2, “Cannabichromene formulation for pain management” (Zyus Life Sciences Inc., priority 2020, dated 2026).

Assay [1] deals with Oxaliplatin-induced cool allodynia. Put plainly: Acetone Cooling Test (ACT) in oxaliplatin-induced polyneuropathy (OIPN) model. The class given is in vivo, C57BL/6J mice. Conditions: CBC 20 mg/kg p.o. The protocol: Model Induction—Mouse Oxaliplatin-induced polyneuropathy (OIPN) model was induced over a three-week period. The day of first Oxaliplatin (OXP) injection is referred to as day 0 (DO). OXP was administered as six separate intraperitoneal injections at 4.5-mg/kg (10 ml/kg, i.p.) to Groups 2, 3, and 4 on DO, D4, D8, D12, D16, and D20. The cumulative OXP dose was thus 27 mg/kg. The in-life procedures, such as observations, tests, and/or measurements were performed by Charles River Discovery Services with blinded methods. The mice were distributed into 4 groups (n=8 for Vehicle Control; n=10 OXP Control; n=20 CBC; n=15 Duloxetine).
Treatments—Following exposure to OXP for 20 days, Groups 3 and 4 were treated with CBC (20 mg/kg, p.o.) and Duloxetine (25 mg/kg, i.p.), respectively, for 10 consecutive days. In a similar regimen Groups 1 and 2 (Vehicle Control and OXP-Vehicle Control, respectively) received a corresponding volume of 5% glucose solution at an administration volume of 10 mL/kg.
Acetone Cooling Test (ACT) —To produce a measurable cooling sensation, 10-15 μL of acetone was applied onto the medial area of the plantar hind paw with a 0.5 ml insulin syringe. Responses of a mouse to acetone were monitored for 20 s, and a score given based on a four-point scale (0-3 points), according to the response intensity, continuation, and briskness. The higher the score, the greater the cool allodynia sensed by the mouse.
Within one test timepoint, a total of 3 trials were performed per paw with a minimum gap of 5 min between testing. The three individual scores were added up to obtain a single score over a cumulative period of 60 s. Thus, for one test, the minimum score of one paw is 0 (no cool allodynia), while the maximum possible score is 9 (intensive cool allodynia). The total scores for the left and right paws were averaged to accomplish a single result value per mouse at each timepoint.
The Acetone Cooling Test was performed prior to OXP administration (Baseline), following the last OXP injection (D21), one day after the first CBC, Duloxetine, or Vehicle treatment (D22), and after a 10-day daily dosing of CBC, Duloxetine, or Vehicle treatment (D31). Taken together, the ACT was used to assess chemotherapy-induce cool allodynia as stated in the schedule:
On D22: At 60 min after the first Vehicle/CBC dose and 120 min after Dulx dose.
On D31: At 60 min after the last Vehicle/CBC and 120 min after Dulx dose.

In the next assay the target is CB1 receptors (Homo sapiens, UniProt P21554). The conditions noted are these: cited from earlier work.
Chain of CB1 receptors (P21554 whole entry): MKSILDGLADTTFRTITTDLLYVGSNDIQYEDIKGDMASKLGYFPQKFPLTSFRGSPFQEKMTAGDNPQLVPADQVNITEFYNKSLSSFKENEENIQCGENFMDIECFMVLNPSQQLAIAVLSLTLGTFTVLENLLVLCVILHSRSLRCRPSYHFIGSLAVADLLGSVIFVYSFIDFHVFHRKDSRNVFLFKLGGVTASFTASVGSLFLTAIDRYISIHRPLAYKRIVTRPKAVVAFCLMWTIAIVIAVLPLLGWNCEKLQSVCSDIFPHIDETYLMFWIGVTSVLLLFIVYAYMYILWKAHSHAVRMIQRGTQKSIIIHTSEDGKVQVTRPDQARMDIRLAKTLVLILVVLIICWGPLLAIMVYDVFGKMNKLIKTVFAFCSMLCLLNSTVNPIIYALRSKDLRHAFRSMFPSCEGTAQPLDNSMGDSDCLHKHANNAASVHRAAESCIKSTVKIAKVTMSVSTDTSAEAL

On to `CCCCCc1cc(O)c2c(c1)OC(C)(CCC=C(C)C)C=C2` (stereo not drawn) [CBC, cannabichromene], for which the “ACT score compared with OXP-Vehicle control” value in assay [1] (D22, acute single dose, Duloxetine 25 mg/kg i.p.) was “statistically significant and comparable reduction in cool allodynia”; in assay [1] (D31, chronic repeated dosing, Duloxetine 25 mg/kg i.p.) it was “qualitative but not statistically significant reduction”. The “ACT score compared with OXP-Vehicle control: p” value in assay [1] (D31, chronic repeated dosing, Mann-Whitney test) is given as 0.06. Also, the “ACT score, D31 vs. D21” value in assay [1] (within group, 10-day repeated dosing, Duloxetine 25 mg/kg i.p.) is “significant reversion of cool allodynia”. Further, the “ACT score, reversion of cool allodynia D22 vs. D21 pre-treatment: p” value in assay [1] (within group, single dose, Duloxetine 25 mg/kg i.p.) is below 0.001. Moreover, the “binds to CB1 receptors only at concentrations higher than” value on CB1 receptors is recorded as “higher than 1 micromolar”.
